Values quoted from earlier work as cited in US20240182421A1, “SYNTHESIS OF ENDOCHIN-LIKE QUINOLONES” (Oregon Health & Science University, priority 2021, published 2024).
Entries after “also recorded” stand apart in the source; their conditions may differ.

Tests used:
[1] = test system: apicomplexan parasites of importance to veterinary medicine
malaria = details: compared with ELQ-300
avian malaria = details: in vivo

Structure (SMILES) | activity against a range of apicomplexan parasites of importance to veterinary medicine [1] | antimalarial activity in vivo (malaria) | antiparasitic activity / potency against Toxoplasma gondii (Toxoplasma gondii) | antiparasitic activity / potency against Babesia microti (Babesia microti) | activity in the avian malaria model (avian malaria)
COc1cc2[nH]c(C)c(-c3ccc(Oc4ccc(OC(F)(F)F)cc4)cc3)c(=O)c2cc1Cl [ELQ-300, 6-Chloro-7-methoxy-2-methyl-3-(4-(4-(trifluoromethoxy)phenoxy)phenyl)quinolin-4(1H)-one] | active | – | – | – | –
COc1cc2[nH]c(C)c(-c3ccc(Oc4ccc(OC(F)(F)F)cc4)cc3)c(=O)c2cc1F [ELQ-316, 6-Fluoro-7-methoxy-2-methyl-3-(4-(4-(trifluoromethoxy)phenoxy)phenyl)quinolin-4(1H)-one] | active | slightly less antimalarial activity than ELQ-300 | greatest potency; also recorded: superior antiparasitic activity | greatest potency; also recorded: superior antiparasitic activity | –
CCCCCCCc1c(C)[nH]c2cc(OC)ccc2c1=O [endochin] | – | – | – | – | high activity
